Reference: paper PMC12257509, “New Generation Modified Azole Antifungals against Multidrug-Resistant” (Journal of Medicinal Chemistry, 2025)
Like-named read-outs stand apart in the source and are kept apart here.

Target: T1, CYP51 (CaCYP51), lanosterol 14α-demethylase (Candida albicans, UniProt P10613)
T1 construct: gene ERG11; recombinant CaCYP51
Test: CYP51 reconstitution assay with CPR and NADPH, GC-MS of demethylated sterols
Assay type: biochemical

T1 sequence (P10613 whole entry): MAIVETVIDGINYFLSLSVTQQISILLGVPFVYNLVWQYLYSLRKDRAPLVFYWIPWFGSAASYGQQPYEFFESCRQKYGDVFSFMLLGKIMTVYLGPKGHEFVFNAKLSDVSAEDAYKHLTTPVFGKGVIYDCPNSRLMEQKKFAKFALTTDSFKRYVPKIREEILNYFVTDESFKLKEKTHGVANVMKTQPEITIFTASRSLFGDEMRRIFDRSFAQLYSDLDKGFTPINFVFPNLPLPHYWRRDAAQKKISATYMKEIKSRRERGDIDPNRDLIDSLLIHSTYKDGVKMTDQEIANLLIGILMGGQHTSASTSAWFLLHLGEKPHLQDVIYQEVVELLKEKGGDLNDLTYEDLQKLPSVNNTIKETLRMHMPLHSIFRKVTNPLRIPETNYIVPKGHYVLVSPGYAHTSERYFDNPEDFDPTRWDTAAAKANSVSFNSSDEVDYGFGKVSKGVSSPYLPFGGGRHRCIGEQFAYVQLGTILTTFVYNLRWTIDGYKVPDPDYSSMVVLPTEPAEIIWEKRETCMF

SMILES | IC50 | IC50 (read-out: IC50)
OC(CN1CCC(Nc2ncc(F)cn2)CC1)(Cn1cncn1)c1ccc(F)cc1F (racemic) [compound 7, 2-(2,4-Difluorophenyl)-1-(4-((5-fluoropyrimidin-2-Yl)-amino)-piperidin-1-Yl)-3-(1h-1,2,4-triazol-1-Yl)-propan-2-Ol] | ~400 nM | –
OC(Cn1cncn1)(Cn1cncn1)c1ccc(F)cc1F [fluconazole] | – | ~600 nM
